# Values joined by “and” are separate entries in the source; they are usually repeats but may differ in a detail not shown here. Equal entries are not always repeated.
# Tests used:
# [1] = C57BL/6N, mouse, in vivo
# Procedure: (§4) The individual values of the pharmacokinetic parameters were obtained as empirical Bayes estimates.
# (§5) In the second step, the concentration-time data after the intravenous administration of DMO were modelled to assess distribution and elimination of the metabolite. […] The PK parameters of DMO were fixed to the values estimated after a single IV dose of the metabolite. […] The goodness-of-fit achieved by the pharmacokinetic models was assessed with the help of the objective function value and diagnostic plots of 1/observed and predicted concentrations vs. time, 2/ observed vs. individually predicted concentrations, 3/ weighted residuals vs. time and 4/ weighted residuals vs. predicted concentrations. Finally, the mean prediction errors and the mean absolute prediction errors were calculated.
# (§6) The between-animal variability in model parameters were described by an exponential model and a proportional model was used to describe the residual variability.
# [2] = Rapid equilibrium dialysis, binding in brain homogenates; type: in vitro ADME, mice; details: C57BL/6N, mouse; for fraction unbound at 4 h: mean (range), pooled samples, read-out: unbound fraction in the brain homogenate; for fraction unbound at 4 h, 100 ng/mL: pH 7.4, RED control samples spiked at 100 ng/mL, range, read-out: unbound fraction in brain homogenate, control samples
# Procedure: Plasma samples collected from individual mice at each time point were pooled into composite samples due to insufficient sample volumes for performing RED. Similarly, brain homogenate samples from individual time points were pooled. RED was performed according to the manufacturer’s protocol (for details, see the Supplementary Materials). The free drug fraction in plasma was calculated by using Equation 1: […]
# The free drug fraction in the brain homogenate was determined by using Equation 2, which accounts for the effect of tissue dilution on the unbound fraction:
# fu,brain=1/D/(1/fu,diluted−1)+1/D
# were D is the dilution factor in the brain homogenate and the fu,diluted associated free fraction determined as the ratio of concentrations in the buffer versus the diluted brain tissue.
# (§1) Rapid Equilibrium Dialysis. Briefly, 50 µL of drug-spiked plasma or 100 µL of 10-fold diluted brain homogenates were added to the sample chambers of the RED device, while 300 µL or 350 µL of phosphate-buffered saline (PBS, pH at 7.4) were added to the corresponding buffer chambers. Each pooled sample was analysed in triplicate. Control samples consisting of plasma and brain homogenates from the study, spiked with clozapine and trazodone at a target concentration of 100 ng/mL, were analysed in each measurement series. Each plate was sealed with aluminium foil and incubated at 37 ± 1 °C with an agitation at 350 rpm on an orbital shaker (Randox PHMP, Grant Instruments Ltd, Shepreth, Cambridgeshire, England) for 4 hours. After incubation, a matrix-matching procedure was performed: 10 µL of each post-dialysis sample was mixed with an equal volume of PBS, while 10 µL of each buffer sample was mixed with the corresponding blank plasma or brain homogenate. Prior to analysis, 20 µL of the mixed plasma or brain homogenate samples were precipitated with 80 µL of acetonitrile containing an internal standard.
# [3] = protonated form; no reference given; cited from earlier work
# [4] = Rapid equilibrium dialysis, protein binding in plasma; type: in vitro ADME; details: C57BL/6N, mouse, plasma (pooled samples from the study mice), mean (range)
# Procedure: Plasma samples collected from individual mice at each time point were pooled into composite samples due to insufficient sample volumes for performing RED. Similarly, brain homogenate samples from individual time points were pooled. RED was performed according to the manufacturer’s protocol (for details, see the Supplementary Materials). The free drug fraction in plasma was calculated by using Equation 1:
# as §1, with “Prior to analysis, 20 µL of the mixed plasma or brain homogenate samples were precipitated with 80 µL of acetonitrile containing an internal standard.” left out
# in vivo = details: for AUC(0-t): plasma, AUCt plasma, mean (95% CI)
# Procedure: (§2) After a 1-week acclimation period, the mice were randomly assigned to 2 experimental groups of 36 animals each: (1) an LPS group was given a single 4 mg/kg intraperitoneal (IP) injection of lipopolysaccharide (LPS), serotype O55:B05 (Sigma) and (2) a control group received a vehicle (sterile phosphate-buffered saline). […] The volume load for mice weighing 25 g was 125 µL. […] The doses of DMSO and MC were 276 and 25 mg/kg. […] Sampling was performed at 2 intervals in each of the 18 mice injected with LPS and 18 controls. The first blood volume of 150 µL was taken into an EDTA-microvette CB 300 (Sardstedt) from a drop of blood after a small incision at the end of the tail. At the termination interval, the second blood sample was collected by cardiac puncture in terminal anesthesia, and then the animal was put to death by decapitation. […] The injected volume was 1 mL/kg, that is, 25 µL for a 25 g mouse. […] The injected volume was 2.5 mL/kg, that is, […]. After IV administrations, blood was sampled at 3, 5, 10, 20, and 40 minutes, and 1, 1.5, 2, 3, 4, and 6 hours. Blood samples were taken at 3 intervals in each mouse. The first 2 samples of 75 µL each were taken from the retroorbital plexus under brief anesthesia and the third terminal sample was described for oral dosing. Plasma samples were obtained from whole blood by centrifugation at 2000 × g for 5 minutes at 4°C. Whole brain, liver, and intestine were excised and immediately frozen in liquid nitrogen. All samples were stored at −80°C until analysis.
# (§3) Details of the analysis can be found in the Supplementary Materials.
# The calculation of the point estimate and the 95% bootstrap t-confidence interval for AUCt was performed with the help of the R-package PK (https://cran.r-project.org/web/packages/PK/index.html). Total brain-to-plasma drug partition coefficient (Kp,brain) and unbound brain-to-unbound plasma partition coefficient (Kp,uu, brain) were calculated using Equations 3 and 4: […]
# [5] = Brain penetration (brain homogenate AUCt, Kp,brain, Kp,uu,brain); details: for Kp uu / Kp: C57BL/6N, mouse, brain, 0.5 mg/kg; for Kp uu: Kp,uu,brain; for Kp: Kp,brain; for AUCt brain homogenate: 4 mg/kg PO OL, t = 24 hours, mean (95% CI); for animals with brain homogenate concentration below the detection limit of 0.20 ng/g: PO olanzapine
# Procedure: as §2, §3
# The calculation of the point estimate and the 95% bootstrap t-confidence interval for AUCt was performed with the help of the R-package PK (https://cran.r-project.org/web/packages/PK/index.html). Total brain-to-plasma drug partition coefficient (Kp,brain) and unbound brain-to-unbound plasma partition coefficient (Kp,uu, brain) were calculated using Equations 3 and 4:
# Kp,brain=AUCt,brain/AUCt,plasma
# Kp, uu,brain=fu,brain × AUCt,brain/fu, plasma × AUCt,plasma
# [6] = Population compartmental pharmacokinetic modelling of olanzapine and DMO;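 note: pharmacokinetic model fitted to concentration-time data, with between-animal variability described exponentially, residual error proportional, and effect of LPS injection assessed on clearance and distribution volumes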
# Procedure: as §4, §5, §6
# mice = system: mice; set-up: method as in supplement 4; details: p.o., ref supplement 4; cited from earlier work
# [7] = set-up: method as in supplement 9; details: rat; 15 % (w:v) DMSO (660 mg/kg) in 0.5 % MC p.o.; ref supplement 9; cited from earlier work
structure (smiles),measurement,setting,value
"Cc1cc2c(s1)Nc1ccccc1N=C2N1CCNCC1 [DMO, 4’-N-desmethylolanzapine]",Q,[1],2.51 (30%) L·hour^−1.kg^-1
same,V1,[1],1.6 (14%) L.kg^-1
same,V2,[1],1.49 (14%) L.kg^-1
same,decrease in the plasma clearance of DMO in LPS mice,[1],4.8 fold
same,βCL_LPS,[1],-1.54 (21%)
same,βV1_LPS,[1],-1.2 (15%)
same,βV2_LPS,[1],-0.56 (38%)
same,"ωCL, percent interindividual variability",[1],54 (34%)
same,"ωQ, percent interindividual variability",[1],17 (90%)
same,"ωV1, percent interindividual variability",[1],37 (18%)
same,"ωV2, percent interindividual variability",[1],13 (122%)
same,decrease of median V1 by LPS in comparison to controls,[1]; iv,70%
same,decrease of median V2 by LPS in comparison to controls,[1]; iv,43%
same,fraction unbound at 4 h,"[2]; pH 7.4, LPS mice",0.088
same,fraction unbound at 4 h,"[2]; pH 7.4, control mice",0.087
same,pKa,[3],8.8
same,fraction unbound at 4 h,"[4]; pH 7.4, LPS mice",0.083
same,fraction unbound at 4 h,"[4]; pH 7.4, control mice",0.13
same,"increase of mean plasma AUC24h, LPS mice vs controls","in vivo; C57BL/6N, mouse, in vivo, 4 mg/kg",2.6 fold
same,increase of plasma AUC in LPS mice,"in vivo; C57BL/6N, mouse, in vivo, po",140%
same,AUC(0-t),"in vivo; C57BL/6N, mouse, iv, 0.5 mg/kg, Controls, 0.5 mg/kg IV DMO, t = 6 hours",562 ng·h/mL
same,AUC(0-t),"in vivo; C57BL/6N, mouse, iv, 0.5 mg/kg, Controls, 0.5 mg/kg IV olanzapine, t = 6 hours",28.7 ng·h/mL
same,AUC(0-t),"in vivo; C57BL/6N, mouse, iv, 0.5 mg/kg, LPS mice, 0.5 mg/kg IV DMO, t = 6 hours",1690 ng·h/mL
same,AUC(0-t),"in vivo; C57BL/6N, mouse, iv, 0.5 mg/kg, LPS mice, 0.5 mg/kg IV olanzapine, t = 6 hours",57.6 ng·h/mL
same,AUC(0-t),"in vivo; C57BL/6N, mouse, po, 4 mg/kg, Controls, 4 mg/kg PO olanzapine, t = 24 hours",408 ng·h/mL
same,AUC(0-t),"in vivo; C57BL/6N, mouse, po, 4 mg/kg, LPS mice, 4 mg/kg PO olanzapine, t = 24 hours",1070 ng·h/mL
same,Kp uu,"[5]; intravenous, abstract, LPS and control mice",≤ 0.051
same,Kp,"[5]; iv, Controls, 0.5 mg/kg IV DMO",0.077
same,Kp,"[5]; iv, LPS mice, 0.5 mg/kg IV DMO",0.039
same,Kp uu,"[5]; iv, Controls, 0.5 mg/kg IV DMO",0.051
same,Kp uu,"[5]; iv, LPS mice, 0.5 mg/kg IV DMO",0.042
same,AUCt brain homogenate,[5]; Controls,trace levels^b
same,brain homogenate levels after IV olanzapine,"[5]; LPS animals and controls, IV olanzapine",neither the LPS animals nor the controls had any brain homogenate levels of DMO higher than the limits of detection
same,animals with brain homogenate concentration below the detection limit of 0.20 ng/g,[5]; LPS group,4 of 18
same,AUCt brain homogenate,[5]; LPS mice,trace levels^b
same,animals with brain homogenate concentration below the detection limit of 0.20 ng/g,[5]; control group,5 of the 18
same,clearance,"[6]; C57BL/6N, mouse, plasma",10.3 mL/min/kg
Cc1cc2c(s1)Nc1ccccc1N=C2N1CCN(C)CC1 [olanzapine],Q,[1],9.0 (31%) L·hour^−1.kg^-1
same,V1,[1],4.1 (13%) L.kg^-1
same,V2,[1],3.5 (18%) L.kg^-1
same,higher absolute bioavailability in LPS mice,[1],200%
same,βCL_LPS,[1],-0.43 (42%)
same,βF_LPS,[1],1.14 (14%)
same,"ωCL, percent interindividual variability",[1],24 (37%)
same,"ωF, percent interindividual variability",[1],16 (38%)
same,"ωQ, percent interindividual variability",[1],73 (49%)
same,"ωV1, percent interindividual variability",[1],45 (32%)
same,"ωV2, percent interindividual variability",[1],83 (20%)
same,"increase of mean plasma AUC24h, LPS mice vs controls",in vivo; 4 mg/kg PO olanzapine,3.8 fold
same,CL/F,"in vivo; mouse, in vivo, po, 4 mg/kg",552 mL/min/kg
same,brain AUC higher in LPS mice than controls,[5]; intravenous olanzapine 0.5 mg/kg,1.8 fold
same,brain AUC higher in LPS mice than controls,[5]; oral olanzapine 4 mg/kg,5.2 fold and 5 fold
same,Fp.o. olanzapine,"[6]; population median (%RSE), reference group controls",0.075 (12%)
"C[S+](C)[O-] [DMSO, dimethyl sulfoxide]",LD50,mice,16500 to 24600 mg/kg
O=c1n(CCCN2CCN(c3cccc(Cl)c3)CC2)nc2ccccn12 [trazodone],"fraction unbound at 4 h, 100 ng/mL",[2],0.078 to 0.118
O=C1CCc2cc(OCCCCc3nnnn3C3CCCCC3)ccc2N1 [cilostazole],increase of AUC for plasma cilostazole by DMSO,[7],32%
CN1CCN(C2=Nc3cc(Cl)ccc3Nc3ccccc32)CC1 [clozapine],"fraction unbound at 4 h, 100 ng/mL",[2],0.014 to 0.021

# Reference: publication PMC12202309 (International Journal of Neuropsychopharmacology, 2025)
